Reference: patent publication US20220152080A1 (priority 2019, published 2022)

Legend:
[1] = tested on: RSK2; test: TPA stimulation: nuclear localization of RSK2 in A549 cells; type: cell-based; details: A549, TPA-stimulated, 1 h; unstimulated 29.37%±1.15%
Experimental: (§1) (A,C) A549 cells were stimulated with TPA (200 nM). The solvent DMSO served as negative control. After 1 h the cells were fixed and cellular localization of RSK2 or ERK1/2 (Alexa-561) was analyzed by epifluorescence microscopy. Nuclei were stained with Dapi. Dashed squares indicate zoom-in areas. Shown are representative epifluorescence microscopy pictures of single focal planes. Results of one out of three independent experiments are shown. Scale bar represents 50 μm.(B,D) Quantification of the cellular localization of RSK2 or ERK1/2 from (A,C). 15 epifluorescence microscopy pictures of each sample were analyzed in terms of the RSK2 localization using the ImageJ “Intensity Ratio Nuclei Cytoplasm Tool”. Results are depicted as means±SD of three independent experiments. Statistical significance was analyzed by unpaired t-test with Welch's correction (**p≤0.01).
(§2) To exclude unspecific staining of RSK2 and ERK1/2 the Raf/MEK/ERK-pathway was stimulated with TPA. It is known that the incubation with TPA leads to the activation of the Raf/MEK/ERK-pathway resulting in the nuclear localization of ERK1/2 and RSKs within minutes after the stimulation. […] After 1 h the cells were fixed and cellular localization of RSK2 or ERK1/2 (Alexa-561) was analyzed by epifluorescence microscopy. […] Statistical significance was analyzed by unpaired t-test with Welch's correction (**p≤0.01). […]

[2] = tested on: ERK1/2; test: TPA stimulation: nuclear localization of ERK1/2 in A549 cells; type: cell-based; details: A549, TPA-stimulated, 1 h; unstimulated 27.99%±1.97%
Experimental: as §1, §2

[3] = tested on: RSK1; type: cell-based
[4] = tested on: viral NP protein (Serine residues 269 and 392); type: cell-based, influenza A virus
[5] = tested on: vRNP nuclear export (viral NP protein), WSN/H1N1; type: cell-based, influenza A virus
[6] = tested on: RanBP1 (Crm1 export pathway); type: cell-based
[7] = tested on: MCF-7; details: cited from earlier work
[8] = tested on: WSN/H1N1; type: cell-based, influenza A virus; details: read-out: EC50 (progeny virus titers)
[9] = tested on: RSK substrate p140; details: not that of RSK or RSK upstream kinases even at 100 μM; cited from earlier work
[10] = biological target: p90 ribosomal S6 kinase (N-terminal kinase domain); details: cited from earlier work
[11] = tested on: vRNPs of WSN/H1N1, PR8M/H1N1, pdm09Hamburg/H1N1, Panama/H3N2, KAN-1/H5N1, Anhui/H7N9, SC35M/H7N7, B/Lee; type: cell-based, influenza A and B viruses; details: 15 μM, treated 3 h p.i., fixed 9 h or 12 h p.i., MOI 5
[12] = tested on: ERK1/2; type: cell-based
[13] = tested on: vRNP-M1 interaction; type: cell-based, influenza A virus
[14] = tested on: GSK-3β; type: cell-based
[15] = tested on: RSK1; details: in vitro; cited from earlier work
[16] = tested on: WSN/H1N1, PR8M/H1N1, pdm09Hamburg/H1N1, Panama/H3N2, KAN-1/H5N1, Anhui/H7N9, SC35M/H7N7, B/Lee; type: cell-based, influenza A and B viruses; details: 15 μM, 24 h p.i., MOI 0.01, A549 or MDCKII cells, DMSO control = 100%

## CCCCCCCCCCCCCC(=O)O[C@@H]1[C@@H](C)[C@@]2(O)[C@@H](C=C(CO)C[C@]3(O)C(=O)C(C)=C[C@@H]23)[C@@H]2C(C)(C)[C@]12OC(C)=O [TPA]
[1]
  nuclear accumulation of RSK2: 34.89%±0.67%
[2]
  nuclear accumulation of ERK1/2: 48.02%±2.25%

## O=C(NOCC1CC1)c1ccc(F)c(F)c1Nc1ccc(I)cc1Cl [CI-1040]
[3]
  virus induced RSK activation: blocked
[4]
  phosphorylation state of NP Serine residues 269 and 392: decreased phosphorylation state

## CCC(=C/[C@H](C)C/C=C/C(C)=C/[C@@H](C)C(=O)[C@@H](C)[C@H](O)[C@@H](C)C/C(C)=C/C(=O)O)/C=C/[C@@H]1OC(=O)C=C[C@@H]1C [Leptomycin B]
[5]
  nuclear retention of the viral NP protein (vRNPs): highest retention rates
[6]
  nuclear retention of RanBP1: nuclear retention of RanBP1 was only detected for the Leptomycin B treated samples

## O=C(O)c1ccc(F)c(F)c1Nc1ccc(I)cc1Cl [ATR-002]
[5]
  nuclear retention of the viral NP protein (vRNPs): nuclear retention
[6]
  nuclear retention of RanBP1: not detected

## CC(=O)O[C@@H]1[C@@H](OC(C)=O)[C@@H](O)[C@H](Oc2c(-c3ccc(O)cc3)oc3cc(O)cc(O)c3c2=O)O[C@H]1C [SL0101-1]
[5]
  nuclear retention of the viral NP protein (vRNPs): nuclear retention
[7]
  inhibition of proliferation of MCF-7: inhibit the proliferation of MCF-7
[8]
  EC50: 10500 nM
[9]
  block of PDB-induced cellular phosphorylation of p140: specifically block
[10]; selective, reversible, ATP-competitive
  Ki: 1000 nM
[10]; with 10 μM ATP, read-out: IC50 RSK kinase activity
  IC50: 89 nM
[6]
  nuclear retention of RanBP1: not detected

## CC(C)CCN1c2nc(Nc3cc(F)c(O)c(F)c3)ncc2N(C)C(=O)C1C (centres unmarked) [BI-D1870]
[11]
  nuclear retention of newly synthesized vRNPs, all tested viruses: nuclear retention of newly synthesized vRNPs
[12]
  ERK1/2 phosphorylation state: induction of the ERK1/2 phosphorylation state
[5]
  nuclear retention of the viral NP protein (vRNPs): negatively affected the vRNP nuclear export
[8]
  EC50: 2810 nM
[13]
  amount of M1 co-purified with Strep-PB2-vRNPs: decreased amount of M1
[14]
  GSK-3ß phosphorylation: concentration dependent reduction
[15]
  IC50: […]
[16]
  reduction of progeny viral titers, all tested viruses: 80 to 90%
